In patent US9353051B2, “Antiviral drugs for treatment or prevention of dengue infection” (Siga Technologies Inc., priority 2007, dated 2016):
pEC50: −log10 of the molar value.

Tested on: Dengue-2 (Strain New Guinea C)
Assay: viral yield assay against Dengue-2 in Vero cells
Format: cell-based
Settings: Dengue virus; Vero cells, MOI 0.1, harvested 48 hours post infection; read-out: Activity (anti-dengue 2 viral activity, EC50)
Method: Compounds that were active in the primary screen were also tested for activity in viral yield assays. […] Vero cells in 12-well plates were infected with dengue-2 virus at a multiplicity of infection (MOI) of 0.1, treated with compound (or DMSO as a control), incubated at 37° C., harvested 48 hours post infection and titered on Vero cells as described above. The EC50 was calculated through ExcelFit. Those compounds with activity below 1 μM are indicated with “A”, those with activity between 1 and 10 μM are indicated with “B”, those with activity between 10 and 25 μM with “C”, and those with activity above 25 μM are indicated with “D”.

| SMILES | pEC50 |
| --- | --- |
| CC(C)NS(=O)(=O)c1ccc(NC(=O)C(C)N(C)Cc2nc3ccccc3c(=O)[nH]2)cc1 (centres unmarked) [Compound 133, N-(4-Isopropylsulfamoyl-phenyl)-2-[methyl-(4-oxo-3,4-dihydro-quinazolin-2-ylmethyl)-amino]-propionamide] | < 4.60 |
| NS(=O)(=O)c1ccc(NC(=O)Cn2c(=O)cnc3ccccc32)cc1 [Compound 119, 2-(2-Oxo-2H-quinoxalin-1-yl)-N-(4-sulfamoyl-phenyl)-acetamide] | < 4.60 |
| O=C(Cn1cnc2ccccc2c1=O)Nc1ccc(S(=O)(=O)O)cc1 [Compound 127, 4-[2-(4-Oxo-4H-quinazolin-3-yl)-acetylamino]-benzenesulfonic acid] | < 4.60 |
| CCOc1ccc(S(=O)(=O)N(CC)CC)cc1NC(=O)Cn1cnc2ccccc2c1=O [Compound 92, N-(5-Diethylsulfamoyl-2-ethoxy-phenyl)-2-(4-oxo-4H-quinazolin-3-yl)-acetamide] | < 4.60 |
| CCN(CC)S(=O)(=O)c1cc(C)c(C)c(NC(=O)Cn2cnc3ccccc3c2=O)c1 [Compound 90, N-(5-Diethylsulfamoyl-2,3-dimethyl-phenyl)-2-(4-oxo-4H-quinazolin-3-yl)-acetamide] | < 4.60 |
| COc1ccc(S(=O)(=O)N(C)C)cc1NC(=O)Cn1cnc2cc([N+](=O)[O-])ccc2c1=O [Compound 126, N-(5-Dimethylsulfamoyl-2-methoxy-phenyl)-2-(7-nitro-4-oxo-4H-quinazolin-3-yl)-acetamide] | < 4.60 |
| CCN(CC)S(=O)(=O)c1ccc(C)c(NC(=O)Cn2cnc3ccccc3c2=O)c1 [Compound 89, N-(5-Diethylsulfamoyl-2-methyl-phenyl)-2-(4-oxo-4H-quinazolin-3-yl)-acetamide] | < 4.60 |
| NS(=O)(=O)c1cccc(NC(=O)Cn2cnc3ccccc3c2=O)c1 [Compound 106, 2-(4-Oxo-4H-quinazolin-3-yl)-N-(3-sulfamoyl-phenyl)-acetamide] | < 4.60 |
| CN(Cc1ccccc1)S(=O)(=O)c1ccc(NC(=O)CCn2cnc3ccccc3c2=O)cc1 [Compound 98, N-[4-(Benzyl-methyl-sulfamoyl)-phenyl]-3-(4-oxo-4H-quinazolin-3-yl)-propionamide] | < 4.60 |
| CCN(CC(=O)Nc1ccc(S(=O)(=O)N(C)C)cc1)Cc1nc2ccccc2c(=O)[nH]1 [Compound 115, N-(4-Dimethylsulfamoyl-phenyl)-2-[ethyl-(4-oxo-3,4-dihydro-quinazolin-2-ylmethyl)-amino]-acetamide] | < 4.60 |
| CN1CCN(S(=O)(=O)c2ccc(NC(=O)Cn3cnc4ccccc4c3=O)cc2)CC1 [Compound 45, N-[4-(4-Methyl-piperazine-1-sulfonyl)-phenyl]-2-(4-oxo-4H-quinazolin-3-yl)-acetamide] | < 4.60 |
| Cc1ccc(S(=O)(=O)N(C)c2ccc(OC(=O)Cn3cnc4ccccc4c3=O)cc2)cc1C [Compound 117, (4-Oxo-4H-quinazolin-3-yl)-acetic acid 4-[(3,4-dimethyl-benzenesulfonyl)-methyl-amino]-phenyl ester] | < 4.60 |
| CCN(CC)S(=O)(=O)c1ccc(NC(=O)CNC(=O)c2cccc(S(=O)(=O)N(C)C)c2)cc1 [Compound 70, N-[(4-Diethylsulfamoyl-phenylcarbamoyl)-methyl]-3-dimethylsulfamoyl-benzamide] | < 4.60 |
| CCN(CC)S(=O)(=O)c1ccc(NC(=O)Cn2cnc3c(C)cccc3c2=O)cc1 [Compound 26, N-(4-Diethylsulfamoyl-phenyl)-2-(8-methyl-4-oxo-4H-quinazolin-3-yl)-acetamide] | 4.60 to 5.00 |
| CCN(CC(=O)Nc1ccc(S(N)(=O)=O)cc1)Cc1nc2cc(OC)c(OC)cc2c(=O)[nH]1 [Compound 120, 2-[(6,7-Dimethoxy-4-oxo-3,4-dihydro-quinazolin-2-ylmethyl)-ethyl-amino]-N-(4-sulfamoyl-phenyl)-acetamide] | < 4.60 |
| CNS(=O)(=O)c1ccc(NC(=O)Cn2cnc3ccccc3c2=O)cc1 [Compound 46, N-(4-Methylsulfamoyl-phenyl)-2-(4-oxo-4H-quinazolin-3-yl)-acetamide] | < 4.60 |
| NS(=O)(=O)c1ccc(NC(=O)CCc2nc3ccccc3c(=O)[nH]2)cc1 [Compound 109, 3-(4-Oxo-3,4-dihydro-quinazolin-2-yl)-N-(4-sulfamoyl-phenyl)-propionamide] | < 4.60 |
| CCN(CC)S(=O)(=O)c1ccc(C(=O)Nn2cnc3ccccc3c2=O)cc1 [Compound 67, 4-Diethylsulfamoyl-N-(4-oxo-4H-quinazolin-3-yl)-benzamide] | < 4.60 |
| CCN(CC)S(=O)(=O)c1ccc(Cl)c(NC(=O)Cn2cnc3ccccc3c2=O)c1 [Compound 93, N-(2-Chloro-5-diethylsulfamoyl-phenyl)-2-(4-oxo-4H-quinazolin-3-yl)-acetamide] | < 4.60 |

| SMILES | pEC50 |
| --- | --- |
| CCN(CC)S(=O)(=O)c1ccc(OC)c(NC(=O)CCn2nnc3ccccc3c2=O)c1 [Compound 27, N-(5-Diethylsulfamoyl-2-methoxy-phenyl)-3-(4-oxo-4H-benzo[d][1,2,3]triazin-3-yl)-propionamide] | 4.60 to 5.00 |
| CCN(CC)S(=O)(=O)c1ccc(NC(=O)Cn2cnc3c(oc4ccccc43)c2=O)cc1 [Compound 24, N-(4-Diethylsulfamoyl-phenyl)-2-(4-oxo-4H-benzo [4,5]furo[3,2-d]pyrimidin-3-yl)-acetamide] | 4.60 to 5.00 |
| NS(=O)(=O)c1cccc(NC(=O)Cn2nnc3ccccc3c2=O)c1 [Compound 131, 2-(4-Oxo-4H-benzo[d][1,2,3]triazin-3-yl)-N-(3-sulfamoyl-phenyl)-acetamide] | < 4.60 |
| CCN(CC)S(=O)(=O)c1ccc(NC(=O)Cn2cnc3cc(OC)c(OC)cc3c2=O)cc1 [Compound 58, N-(4-Diethylsulfamoyl-phenyl)-2-(6,7-dimethoxy-4-oxo-4H-quinazolin-3-yl)-acetamicle] | < 4.60 |
| CN(Cc1nc2ccccc2c(=O)[nH]1)C(=O)c1ccc(S(=O)(=O)N(C)C)cc1 [Compound 112, 4-Dimethylsulfamoyl-N-methyl-N-(4-oxo-3,4-dihydro-quinazolin-2-ylmethyl)-benzamide] | < 4.60 |
| CCN(CC)S(=O)(=O)c1ccc(NC(=O)Cn2cnc3cc(Cl)ccc3c2=O)cc1 [Compound 23, 2-(7-Chloro-4-oxo-4H-quinazolin-3-yl)-N-(4-diethylsulfamoyl-phenyl)-acetamide] | 4.60 to 5.00 |
| NS(=O)(=O)c1ccc(CCNC(=O)Cn2c(=O)cnc3ccccc32)cc1 [Compound 130, 2-(2-Oxo-2H-quinoxalin-1-yl)-N-[2-(4-sulfamoyl-phenyl)-ethyl]-acetamide] | < 4.60 |
| NS(=O)(=O)c1ccc(NC(=O)COC(=O)CCc2nc3ccccc3c(=O)[nH]2)cc1 [Compound 116, 3-(4-Oxo-3,4-dihydro-quinazolin-2-yl)-propionic acid (4-sulfamoyl-phenylcarbamoyl)-methyl ester] | < 4.60 |
| CCN(CC)S(=O)(=O)c1ccc(C)c(NC(=O)Cn2nnc3ccccc3c2=O)c1 [Compound 95, N-(5-Diethylsulfamoyl-2-methyl-phenyl)-2-(4-oxo-4H-benzo[d][1,2,3]triazin-3-yl)-acetamide] | < 4.60 |
| CN(Cc1ccccc1)S(=O)(=O)c1ccc(NC(=O)Cn2cnc3ccccc3c2=O)cc1 [Compound 36, N-[4-(Benzyl-methyl-sulfamoyl)-phenyl]-2-(4-oxo-4H-quinazolin-3-yl)-acetamide] | < 4.60 |
| CC(C)(C)NS(=O)(=O)c1cccc(NC(=O)Cn2cnc3ccccc3c2=O)c1 [Compound 55, N-(3-tert-Butylsulfamoyl-phenyl)-2-(4-oxo-4H-quinazolin-3-yl)-acetamide] | < 4.60 |
| CN(C)S(=O)(=O)c1cccc(NC(=O)Cn2cnc3ccccc3c2=O)c1 [Compound 107, N-(3-Dimethylsulfamoyl-phenyl)-2-(4-oxo-4H-quinazolin-3-yl)-acetamide] | < 4.60 |
| CCN(CC)S(=O)(=O)c1ccc(NC(=O)CSc2nc3ccccc3c(=O)n2C)cc1 [Compound 71, N-(4-Diethylsulfamoyl-phenyl)-2-(3-methyl-4-oxo-3,4-dihydro-quinazolin-2-ylsulfanyl)-acetamide] | < 4.60 |
| O=C(COC(=O)Cn1cnc2ccccc2c1=O)Nc1ccc(S(=O)(=O)N2CCCC2)cc1 [Compound 124, (4-Oxo-4H-quinazolin-3-yl)-acetic acid [4-(pyrrolidine-1-sulfonyl)-phenylcarbamoyl]-methyl ester] | < 4.60 |
| CCN(CC)S(=O)(=O)c1ccc(NC(=O)CSc2nc3ccccc3c(=O)n2CC)cc1 [Compound 64, N-(4-Diethylsulfamoyl-phenyl)-2-(3-ethyl-4-oxo-3,4-dihydro-quinazolin-2-ylsulfanyl)-acetamide] | < 4.60 |
| CCN(CC)S(=O)(=O)c1ccc(NC(=O)Cn2cnc3cc(NC)c([N+](=O)[O-])cc3c2=O)cc1 [Compound 60, N-(4-Diethylsulfamoyl-phenyl)-2-(7-methylamino-6-nitro-4-oxo-4H-quinazolin-3-yl)-acetamide] | < 4.60 |
| CN(c1ccccc1)S(=O)(=O)c1cccc(NC(=O)Cn2cnc3ccccc3c2=O)c1 [Compound 122, N-[3-(Methyl-phenyl-sulfamoyl)-phenyl]-2-(4-oxo-4H-quinazolin-3-yl)-acetamide] | < 4.60 |
| O=C(Cn1cnc2ccccc2c1=O)Nc1ccc(S(=O)(=O)NCc2ccco2)cc1 [Compound 41, N-{4-[(Furan-2-ylmethyl)-sulfamoyl]-phenyl}-2-(4-oxo-4H-quinazolin-3-yl)-acetamide] | < 4.60 |
| O=C(Cn1cnc2ccccc2c1=O)Nc1ccc(S(=O)(=O)N2CCOCC2)cc1 [Compound 34, N-[4-(Morpholine-4-sulfonyl)-phenyl]-2-(4-oxo-4H-quinazolin-3-yl)-acetamide] | < 4.60 |
